The text below walks through data of publication PMC11237774, “On-target, dual aminopeptidase inhibition provides cross-species antimalarial activity” (mBio, 2024).

In one series the target is T1, PfA-M1 (Plasmodium falciparum, UniProt O96935).
T1 construct: made in house
The series is described as follows: Recombinant aminopeptidase fluorescence assay (H-Leu-NHMec). The format is biochemical, P. falciparum. How it is done: (§1) Inhibition of aminopeptidase activity assays were performed against nine aminopeptidases: the M1 alanyl and M17 leucyl aminopeptidases from P. falciparum (PfA-M1; PfA-M17), P. vivax (Pv-M1; Pv-M17), and P. berghei (Pb-M1; Pb-M17), and three human M1 homologs: LTA4H (OriGene TP307617), ERAP1 (OriGene TP314469), and ERAP2 (Creative BioMart ERAP2-304H). The Plasmodium enzymes were produced recombinantly as described previously ([16], [17]), and the human recombinant enzymes were purchased from commercial suppliers as indicated.
(§2) The concentration of H-Leu-NHMec in the assay was held constant for each enzyme and ranged from 10 to 100 µM, depending on the enzyme. Reactions were measured at 37°C in white 384-well plates in a total volume of 25 or 50 µL using a spectrofluorimeter (BMG FLUOstar) with excitation at 355 nm and emission at 460 nm. The fluorescence signal was continuously monitored until a final steady-state velocity, v, was obtained. Inhibition constants were calculated from biological triplicates made from three different protein preparations.
(§3) Substrate concentrations were selected to allow sensitive detection of enzyme activity while not exceeding the Km for each enzyme. A compound concentration range was selected to obtain a complete inhibition curve (0%–100 %) in biological triplicate. Where possible, the Ki values were calculated by plotting the initial rates versus inhibitor concentration and fitting to the Morrison equation for tight-binding inhibitors in GraphPad Prism (V.8.4.1; non-linear regression method).

Another series relates to Pf3D7. As to the kind of experiment: 72 h ring killing assay (SYBR Green I). The format is cell-based, P. falciparum. The conditions noted are these: Plasmodium falciparum, Pf3D7 ring stage. On the procedure:
Viability assays were performed as previously described ([7]). Sorbitol-synchronized Pf3D7 (a laboratory strain which is broadly sensitive to standard antimalarial drugs) at ring stages was cultured in the presence of drug serially diluted across a 96-well plate at 0.5% parasitemia and 2% hematocrit. Cultures were grown for 72 h before being placed at −80°C. After thawing, cultures were incubated with equal volumes of lysis buffer (20 mM Tris [pH 7.5], 5 mM EDTA, 0.008% [wt/vol] saponin, and 0.008% [vol/vol] Triton x-100) containing 0.2 µL/mL SYBR Green I Nucleic Acid Gel Stain (10,000× in dimethyl sulfoxide [DMSO]; Thermo Fisher). After 1 h incubation, fluorescence intensity was read on a Glomax Explorer Fully Loaded (Promega) at emission wavelengths of 500–550 nm and an excitation wavelength of 475 nm. Graphs were generated using GraphPad Prism (V.8.4.1). Parasite survival was compared with vehicle-treated cultures in three biological replicates performed in triplicate. This EC50 was used in asexual P. falciparum assays unless otherwise stated.

The target in a further series is Pb-M1 (Plasmodium berghei, UniProt A0A509ATR4). The series is described as follows: Recombinant aminopeptidase fluorescence assay (H-Leu-NHMec). Type of series: biochemical. On the procedure: as §1, §2, §3
Another series concerns the target T2, ERAP1 (Homo sapiens, UniProt Q9NZ08).
T2 construct: purchased OriGene TP314469
The description is as above. The format is biochemical. The conditions noted are these: for inhibition at 1.25 µM: ERAP1, 1.25 µM compound; for inhibition at 10 µM: ERAP1, 10 µM compound; for inhibition at 500 µM: ERAP1, 500 µM compound; for inhibition at 1000 µM: ERAP1, 1000 µM compound. How it is done:
as §1, §2, §3

The target of a further series is T3, ERAP2 (Homo sapiens, UniProt Q6P179).
T3 construct: purchased Creative BioMart ERAP2-304H
Described as above. The format is biochemical. To be noted: for inhibition at 1.25 µM: ERAP2, 1.25 µM compound; for inhibition at 10 µM: ERAP2, 10 µM compound; for inhibition at 500 µM: ERAP2, 500 µM compound; for inhibition at 1000 µM: ERAP2, 1000 µM compound. How it is done:
as §1, §2, §3

A short description of series [1]: Plasma protein binding by ultracentrifugation. Type of series: in vitro ADME. The conditions noted are these: plasma (10% plasma diluted with PBS), pH 7.4. How it is done: Human plasma was obtained from the Volunteer Blood Donor Registry (Walter & Eliza Hall Institute, Melbourne, Australia), rat plasma was from male Sprague-Dawley rats (Animal Resource Centre, Perth, Western Australia) and mouse plasma was procured as described above. RPMI-1640 media supplemented with 25 mM HEPES, 2 g/L sodium bicarbonate, and 100 mg/L neomycin were additionally supplemented with 5 […] on the day prior to binding assessment. […] Additional aliquots of spiked matrix were maintained at 37°C for 4.2 h but not centrifuged to serve as controls for stability assessment and to obtain a measure of the total concentration in each matrix. Following centrifugation, aliquots of the protein-free supernatant and the non-centrifuged matrix controls were “matrix matched” by addition of an equal volume of the opposite medium (i.e., either blank buffer or blank matrix) and assayed as described above with comparison to calibration standards prepared in 50% matrix/50% PBS.

A further series concerns the target T4, Pv-M17 (Plasmodium vivax, UniProt A5K3U9).
T4 construct: made in house
The series is described as follows: Recombinant aminopeptidase fluorescence assay (H-Leu-NHMec). Type of series: biochemical, P. vivax. To be noted: Pv M17, Morrison equation; read-out: Ki^(app) ± SEM. How it is done:
as §1, §2, §3

Series [2] has as its target T5, human leukotriene A4 hydrolase (LTA4H) (Homo sapiens, UniProt P09960).
T5 construct: purchased OriGene TP307617
T5 sequence (P09960 1-611): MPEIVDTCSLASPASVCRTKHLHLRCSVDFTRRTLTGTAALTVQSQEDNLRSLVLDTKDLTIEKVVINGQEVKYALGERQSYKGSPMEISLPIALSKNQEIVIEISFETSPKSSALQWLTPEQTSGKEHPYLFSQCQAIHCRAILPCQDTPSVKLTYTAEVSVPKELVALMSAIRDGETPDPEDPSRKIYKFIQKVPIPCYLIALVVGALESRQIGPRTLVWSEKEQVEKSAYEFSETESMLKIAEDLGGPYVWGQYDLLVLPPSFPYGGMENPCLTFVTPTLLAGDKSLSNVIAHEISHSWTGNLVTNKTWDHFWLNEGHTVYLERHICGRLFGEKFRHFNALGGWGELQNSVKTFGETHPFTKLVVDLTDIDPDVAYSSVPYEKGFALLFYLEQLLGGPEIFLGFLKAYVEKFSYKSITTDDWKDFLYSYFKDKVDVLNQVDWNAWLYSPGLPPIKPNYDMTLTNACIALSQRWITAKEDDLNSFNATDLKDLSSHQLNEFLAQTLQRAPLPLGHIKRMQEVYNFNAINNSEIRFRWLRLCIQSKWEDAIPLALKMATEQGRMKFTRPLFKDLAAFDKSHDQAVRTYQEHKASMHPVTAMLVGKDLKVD
The series is described as follows: Recombinant aminopeptidase fluorescence assay (H-Ala-NHMec). Type of series: biochemical. To be noted: for inhibition at 1.25 µM: 1.25 µM compound; for inhibition at 10 µM: 10 µM compound; for inhibition at 500 µM: 500 µM compound; for inhibition at 1000 µM: 1000 µM compound. How it is done: as §1
Reactions were measured at 37°C in white 384-well plates in a total volume of 25 or 50 µL using a spectrofluorimeter (BMG FLUOstar) with excitation at 355 nm and emission at 460 nm. The fluorescence signal was continuously monitored until a final steady-state velocity, v, was obtained. Inhibition constants were calculated from biological triplicates made from three different protein preparations.
as §3

The mark [3] stands for this setting: read-out: Inhibition of aminopeptidase activity.

Read-outs that look alike come from different tables or passages of the source.

T1 sequence (O96935 whole entry): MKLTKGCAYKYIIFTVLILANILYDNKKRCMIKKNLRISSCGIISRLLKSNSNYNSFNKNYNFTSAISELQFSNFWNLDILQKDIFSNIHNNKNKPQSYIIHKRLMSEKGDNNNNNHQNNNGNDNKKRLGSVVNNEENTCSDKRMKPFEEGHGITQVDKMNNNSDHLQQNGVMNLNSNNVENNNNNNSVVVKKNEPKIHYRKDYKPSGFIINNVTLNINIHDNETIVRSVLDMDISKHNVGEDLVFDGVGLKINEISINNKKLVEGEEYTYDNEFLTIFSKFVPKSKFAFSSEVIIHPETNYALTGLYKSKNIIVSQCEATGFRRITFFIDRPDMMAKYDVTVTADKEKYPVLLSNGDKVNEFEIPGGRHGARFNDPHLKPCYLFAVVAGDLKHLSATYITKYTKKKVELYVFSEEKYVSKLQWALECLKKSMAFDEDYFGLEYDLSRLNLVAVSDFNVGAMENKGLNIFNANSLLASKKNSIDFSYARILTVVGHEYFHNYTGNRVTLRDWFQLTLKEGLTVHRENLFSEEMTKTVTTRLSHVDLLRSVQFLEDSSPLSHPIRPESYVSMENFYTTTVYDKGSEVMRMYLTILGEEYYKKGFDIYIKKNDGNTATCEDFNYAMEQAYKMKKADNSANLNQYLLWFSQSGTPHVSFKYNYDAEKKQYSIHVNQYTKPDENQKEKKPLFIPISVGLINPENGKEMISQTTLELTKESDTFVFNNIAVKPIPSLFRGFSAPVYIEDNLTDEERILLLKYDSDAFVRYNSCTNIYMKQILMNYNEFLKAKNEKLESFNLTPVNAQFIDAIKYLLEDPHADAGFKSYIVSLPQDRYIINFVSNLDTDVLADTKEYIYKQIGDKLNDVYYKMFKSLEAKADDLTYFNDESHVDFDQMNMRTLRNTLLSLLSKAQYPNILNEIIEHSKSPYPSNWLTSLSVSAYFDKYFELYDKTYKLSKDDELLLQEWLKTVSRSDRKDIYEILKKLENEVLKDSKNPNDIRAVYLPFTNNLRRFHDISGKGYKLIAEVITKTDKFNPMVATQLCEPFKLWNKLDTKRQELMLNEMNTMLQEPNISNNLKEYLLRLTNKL
Pb-M1, sequence (A0A509ATR4 entry or part of it): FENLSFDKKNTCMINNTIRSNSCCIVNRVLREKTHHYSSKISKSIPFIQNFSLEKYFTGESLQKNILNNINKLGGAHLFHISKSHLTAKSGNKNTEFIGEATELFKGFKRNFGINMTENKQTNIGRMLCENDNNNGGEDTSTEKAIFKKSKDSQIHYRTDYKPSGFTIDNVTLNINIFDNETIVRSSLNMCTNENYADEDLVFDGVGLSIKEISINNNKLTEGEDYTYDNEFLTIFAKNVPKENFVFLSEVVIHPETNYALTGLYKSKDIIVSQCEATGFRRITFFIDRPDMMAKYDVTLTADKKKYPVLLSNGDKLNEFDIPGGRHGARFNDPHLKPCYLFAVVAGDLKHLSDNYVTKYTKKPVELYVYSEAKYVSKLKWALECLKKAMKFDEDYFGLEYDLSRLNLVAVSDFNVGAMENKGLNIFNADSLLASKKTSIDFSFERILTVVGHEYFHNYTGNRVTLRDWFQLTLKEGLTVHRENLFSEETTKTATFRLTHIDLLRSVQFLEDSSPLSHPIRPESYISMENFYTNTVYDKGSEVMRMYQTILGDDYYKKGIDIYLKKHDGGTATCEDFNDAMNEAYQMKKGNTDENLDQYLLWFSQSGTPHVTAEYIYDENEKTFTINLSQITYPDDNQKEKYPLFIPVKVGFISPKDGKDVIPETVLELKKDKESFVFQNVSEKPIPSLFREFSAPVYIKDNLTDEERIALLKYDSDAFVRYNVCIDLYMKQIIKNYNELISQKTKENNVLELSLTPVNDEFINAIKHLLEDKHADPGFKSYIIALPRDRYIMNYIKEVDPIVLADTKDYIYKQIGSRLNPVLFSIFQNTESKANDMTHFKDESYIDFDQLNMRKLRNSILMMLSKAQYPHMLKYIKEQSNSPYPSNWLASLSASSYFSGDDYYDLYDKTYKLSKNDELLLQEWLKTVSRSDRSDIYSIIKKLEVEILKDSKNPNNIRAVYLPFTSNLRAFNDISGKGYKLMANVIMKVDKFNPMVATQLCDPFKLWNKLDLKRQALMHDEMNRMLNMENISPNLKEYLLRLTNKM
T2 sequence (Q9NZ08 whole entry): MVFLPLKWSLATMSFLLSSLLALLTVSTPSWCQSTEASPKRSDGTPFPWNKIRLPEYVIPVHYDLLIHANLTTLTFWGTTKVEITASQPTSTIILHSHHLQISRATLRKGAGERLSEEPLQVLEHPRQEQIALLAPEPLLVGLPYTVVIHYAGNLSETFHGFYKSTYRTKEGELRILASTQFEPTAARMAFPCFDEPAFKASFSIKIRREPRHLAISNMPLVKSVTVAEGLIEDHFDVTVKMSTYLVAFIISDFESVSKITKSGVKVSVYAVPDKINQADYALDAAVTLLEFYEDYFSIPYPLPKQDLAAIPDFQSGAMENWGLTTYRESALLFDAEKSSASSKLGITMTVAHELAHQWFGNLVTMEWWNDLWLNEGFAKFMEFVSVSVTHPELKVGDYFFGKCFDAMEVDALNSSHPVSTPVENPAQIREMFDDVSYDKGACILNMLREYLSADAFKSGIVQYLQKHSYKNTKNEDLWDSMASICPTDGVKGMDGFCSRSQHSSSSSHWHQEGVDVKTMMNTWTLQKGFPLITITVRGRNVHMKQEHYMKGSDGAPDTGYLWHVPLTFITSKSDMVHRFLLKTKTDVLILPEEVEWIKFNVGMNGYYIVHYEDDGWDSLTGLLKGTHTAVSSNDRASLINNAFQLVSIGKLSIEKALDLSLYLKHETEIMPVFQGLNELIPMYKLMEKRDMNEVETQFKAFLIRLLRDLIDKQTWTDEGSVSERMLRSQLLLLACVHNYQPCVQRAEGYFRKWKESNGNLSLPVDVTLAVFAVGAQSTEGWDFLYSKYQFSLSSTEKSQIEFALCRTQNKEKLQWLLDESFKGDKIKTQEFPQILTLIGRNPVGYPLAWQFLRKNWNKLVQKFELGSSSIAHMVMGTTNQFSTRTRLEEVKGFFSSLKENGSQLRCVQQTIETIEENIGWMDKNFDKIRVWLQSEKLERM
T3 sequence (Q6P179 whole entry): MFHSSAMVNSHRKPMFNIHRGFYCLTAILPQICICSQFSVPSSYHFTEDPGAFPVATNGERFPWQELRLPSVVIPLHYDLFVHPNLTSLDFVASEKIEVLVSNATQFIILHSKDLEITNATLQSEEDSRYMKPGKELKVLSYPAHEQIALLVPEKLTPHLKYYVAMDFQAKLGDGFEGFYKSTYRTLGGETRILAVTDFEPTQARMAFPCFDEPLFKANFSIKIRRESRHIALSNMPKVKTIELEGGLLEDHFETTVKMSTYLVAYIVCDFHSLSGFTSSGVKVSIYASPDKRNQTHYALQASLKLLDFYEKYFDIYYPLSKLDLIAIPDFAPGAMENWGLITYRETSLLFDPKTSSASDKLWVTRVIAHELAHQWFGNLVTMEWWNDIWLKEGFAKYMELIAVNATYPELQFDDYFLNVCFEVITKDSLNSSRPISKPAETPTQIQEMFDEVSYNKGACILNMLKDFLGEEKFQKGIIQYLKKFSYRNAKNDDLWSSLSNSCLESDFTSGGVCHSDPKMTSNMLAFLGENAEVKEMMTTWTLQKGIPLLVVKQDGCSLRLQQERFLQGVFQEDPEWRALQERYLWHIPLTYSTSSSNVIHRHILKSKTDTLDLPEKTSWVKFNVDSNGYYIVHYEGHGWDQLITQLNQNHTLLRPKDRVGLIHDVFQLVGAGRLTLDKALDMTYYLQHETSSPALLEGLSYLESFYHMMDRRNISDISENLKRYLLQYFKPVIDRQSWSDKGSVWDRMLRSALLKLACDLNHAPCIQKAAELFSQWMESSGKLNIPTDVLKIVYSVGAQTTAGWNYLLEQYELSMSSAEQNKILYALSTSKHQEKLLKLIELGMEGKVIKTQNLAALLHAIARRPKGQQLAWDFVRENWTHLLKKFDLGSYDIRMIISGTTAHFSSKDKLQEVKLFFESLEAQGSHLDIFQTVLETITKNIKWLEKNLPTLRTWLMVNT
T4 sequence (A5K3U9 74-621): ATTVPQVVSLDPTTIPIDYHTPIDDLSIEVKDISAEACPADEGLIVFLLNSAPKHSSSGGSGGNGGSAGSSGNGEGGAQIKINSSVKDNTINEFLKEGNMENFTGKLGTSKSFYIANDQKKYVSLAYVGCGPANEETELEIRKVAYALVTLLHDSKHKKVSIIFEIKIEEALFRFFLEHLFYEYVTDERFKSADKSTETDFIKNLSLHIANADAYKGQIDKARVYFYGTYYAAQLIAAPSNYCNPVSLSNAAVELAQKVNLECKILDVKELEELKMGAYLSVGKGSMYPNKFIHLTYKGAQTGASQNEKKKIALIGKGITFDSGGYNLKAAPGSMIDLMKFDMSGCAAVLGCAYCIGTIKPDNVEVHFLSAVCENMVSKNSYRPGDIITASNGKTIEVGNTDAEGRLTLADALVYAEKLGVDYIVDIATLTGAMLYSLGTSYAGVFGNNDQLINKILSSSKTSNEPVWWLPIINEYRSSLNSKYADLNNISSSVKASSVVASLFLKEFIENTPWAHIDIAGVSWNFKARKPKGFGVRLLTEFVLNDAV

As for `CC(C)(C)CC(=O)NC(C(=O)NO)c1ccc(-c2cc(F)c(F)c(F)c2)cc1` (stereo not shown) [MMV1557817, N-(2-(hydroxyamino)−2-oxo-1-(3′,4′,5′-trifluoro-[1,1′-biphenyl]-4-yl)ethyl)-3,3-dimethylbutanamide], the Ki was 308 nM at PfA-M1 (Pf M1, Morrison equation, read-out: Ki^(app) ± SEM); 2 ± 0.2 nM on Pb-M1; 208 ± 20 nM at Pv-M17. For the same compound, the inhibition at 1.25 µM at PfA-M1 (setting [3]) was 83%; at Pb-M1 (setting [3]), 94%; on ERAP1, 0%; at ERAP2 it was 7%; in series [2], 18%. For the same compound, the inhibition at 10 µM at PfA-M1 (setting [3]) is 100%; on Pb-M1 (setting [3]), 100%; on ERAP1 it was 0%; at ERAP2 it was 0%; in series [2] it was 16%. The compound also yielded a concentration giving a half-maximal response (EC50) with Pf3D7 of 39 nM. For the same compound, the figures for the inhibition at 500 µM (on ERAP1; on ERAP2; in series [2]) were 75%, 99.1% and 71%, respectively. Also, the inhibition at 1000 µM stood at 98% at ERAP1, 100% on ERAP2 and 87% in series [2]. Also, the fraction unbound at 4.2 h in series [1] (male, Sprague-Dawley, rat plasma) was 0.022; in series [1] (mouse plasma) it was 0.023.

For `C[C@H]1[C@H](OC(=O)CCC(=O)O)O[C@@H]2O[C@@]3(C)CC[C@H]4[C@H](C)CC[C@@H]1[C@@]24OO3` [artesunate], the inhibition at 1.25 µM on PfA-M1 (setting [3]) was 4.8%; at Pb-M1 (setting [3]) it was 0%; on ERAP1, 0%; on ERAP2 it was 0%; in series [2], 0%. Further, the inhibition at 10 µM came out at 11.9% at PfA-M1 (setting [3]); 12.8% on Pb-M1 (Pb-M1, 10 µM compound, read-out: Inhibition of aminopeptidase activity); 0% on ERAP1; 0% at ERAP2; 12.8% in series [2]. The inhibition at 500 µM is 16.8% at PfA-M1 (setting [3]); 81.3% at Pb-M1 (setting [3]); 0% at ERAP1; 0% on ERAP2; 20.2% in series [2]. Also, the inhibition at 1000 µM worked out at 43.2% at PfA-M1 (setting [3]); 78.2% at Pb-M1 (setting [3]); 0% at ERAP1; 0% at ERAP2; 36% in series [2]. The compound further came in with a concentration giving a half-maximal response (EC50) in the series with Pf3D7 of 4 nM.
